Laboratory results as given in the supplement of paper PMC10883282.

Key:
Test in all cases: relative viability vs DMSO control (72 h) (fraction); higher = more viable cells
A204 = tested on: A204
Method in brief: (§1)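 Plates held 72 h at 37 °C and 5% CO2 contained sarcoma cell lines seeded in 384-well format to reach 80–90% confluence, plus 2.5 µl of serially diluted compound added after 24 h. Source plate concentrations ran from 10 mM to 0.0002 mM, with 0.1% DMSO as vehicle and a 5 µM positive control. Percent growth from ATPLite readings, averaged over up to triplicate wells, gave relative viability. Values were rescaled with 1 as full and 0 as none.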

G401 = tested on: G401
Method in brief: as §1

HS729 = tested on: HS729
Method in brief: as §1

HT1080 = tested on: HT1080
Method in brief: as §1

KHOS-NP = tested on: KHOS-NP
Method in brief: as §1

MES-SA = tested on: MES-SA
Method in brief: as §1

SK-LMS-1 = tested on: SK-LMS-1
Method in brief: as §1

SW1353 = tested on: SW1353
Method in brief: as §1

SW684 = tested on: SW684
Method in brief: as §1

SW872 = tested on: SW872
Method in brief: as §1

SYO-1 = tested on: SYO-1
Method in brief: as §1

VA-ES-BJ = tested on: VA-ES-BJ
Method in brief: as §1

O=C(Nc1nc2cccc(-c3ccc(CN4CCS(=O)(=O)CC4)cc3)n2n1)C1CC1 [Filgotinib]
Conditions | relative viability
A204, 0.00017 µM | 1.09
A204, 0.00051 µM | 1.15
A204, 0.00152 µM | 1.07
A204, 0.00457 µM | 1.068
A204, 0.01372 µM | 1.06
A204, 0.04115 µM | 1.14
A204, 0.1235 µM | 1.13
A204, 0.3704 µM | 1.1
A204, 1.111 µM | 1.12
A204, 3.333 µM | 1.14
A204, 10 µM | 0.974
G401, 0.00017 µM | 0.988
G401, 0.00051 µM | 1.04
G401, 0.00152 µM | 1.027
G401, 0.00457 µM | 1.03
G401, 0.01372 µM | 1.01
G401, 0.04115 µM | 0.995
G401, 0.1235 µM | 1.04
G401, 0.3704 µM | 1.01
G401, 1.111 µM | 1.03
G401, 3.333 µM | 1.01
G401, 10 µM | 0.911
HS729, 0.00017 µM | 1.04
HS729, 0.00051 µM | 0.993
HS729, 0.00152 µM | 0.953
HS729, 0.00457 µM | 0.95
HS729, 0.01372 µM | 0.938
HS729, 0.04115 µM | 0.898
HS729, 0.1235 µM | 0.888
HS729, 0.3704 µM | 0.934
HS729, 1.111 µM | 0.906
HS729, 3.333 µM | 0.849
HS729, 10 µM | 0.831
HT1080, 0.00017 µM | 1.11
HT1080, 0.00051 µM | 1.127
HT1080, 0.00152 µM | 1.066
HT1080, 0.00457 µM | 1.06
HT1080, 0.01372 µM | 1.08
HT1080, 0.04115 µM | 1.1
HT1080, 0.1235 µM | 1.08
HT1080, 0.3704 µM | 1.12
HT1080, 1.111 µM | 1.09
HT1080, 3.333 µM | 1.13
HT1080, 10 µM | 1.12
KHOS-NP, 0.00017 µM | 1.09
KHOS-NP, 0.00051 µM | 1.12
KHOS-NP, 0.00152 µM | 1.1
KHOS-NP, 0.00457 µM | 1.101
KHOS-NP, 0.01372 µM | 1.1
KHOS-NP, 0.04115 µM | 1.1
KHOS-NP, 0.1235 µM | 1.085
KHOS-NP, 0.3704 µM | 1.085
KHOS-NP, 1.111 µM | 1.08
KHOS-NP, 3.333 µM | 1.1
KHOS-NP, 10 µM | 1.09
MES-SA, 0.00017 µM | 0.977
MES-SA, 0.00051 µM | 0.964
MES-SA, 0.00152 µM | 0.943
MES-SA, 0.00457 µM | 0.965
MES-SA, 0.01372 µM | 0.949
MES-SA, 0.04115 µM | 0.953
MES-SA, 0.1235 µM | 0.957
MES-SA, 0.3704 µM | 0.935
MES-SA, 1.111 µM | 0.94
MES-SA, 3.333 µM | 0.923
MES-SA, 10 µM | 0.736
SK-LMS-1, 0.00017 µM | 1.06
SK-LMS-1, 0.00051 µM | 1.08
SK-LMS-1, 0.00152 µM | 1.06
SK-LMS-1, 0.00457 µM | 1.06
SK-LMS-1, 0.01372 µM | 1.06
SK-LMS-1, 0.04115 µM | 1.08
SK-LMS-1, 0.1235 µM | 1.05
SK-LMS-1, 0.3704 µM | 1.05
SK-LMS-1, 1.111 µM | 1.04
SK-LMS-1, 3.333 µM | 1.02
SK-LMS-1, 10 µM | 0.866
SW684, 0.00017 µM | 1.13
SW684, 0.00051 µM | 1.19
SW684, 0.00152 µM | 1.211
SW684, 0.00457 µM | 1.19
SW684, 0.01372 µM | 1.16
SW684, 0.04115 µM | 1.19
SW684, 0.1235 µM | 1.18
SW684, 0.3704 µM | 1.19
SW684, 1.111 µM | 1.18
SW684, 3.333 µM | 1.16
SW684, 10 µM | 1.09
SW872, 0.00017 µM | 1.07
SW872, 0.00051 µM | 1.02
SW872, 0.00152 µM | 1.05
SW872, 0.00457 µM | 1.03
SW872, 0.01372 µM | 1.04
SW872, 0.04115 µM | 1.01
SW872, 0.1235 µM | 1.02
SW872, 0.3704 µM | 1.02
SW872, 1.111 µM | 1.03
SW872, 3.333 µM | 1.02
SW872, 10 µM | 0.933
SW1353, 0.00017 µM | 1.06
SW1353, 0.00051 µM | 1.09
SW1353, 0.00152 µM | 1.05
SW1353, 0.00457 µM | 1.01
SW1353, 0.01372 µM | 1.04
SW1353, 0.04115 µM | 1
SW1353, 0.1235 µM | 0.981
SW1353, 0.3704 µM | 1.02
SW1353, 1.111 µM | 1
SW1353, 3.333 µM | 0.985
SW1353, 10 µM | 0.968
SYO-1, 0.00017 µM | 0.992
SYO-1, 0.00051 µM | 0.995
SYO-1, 0.00152 µM | 0.957
SYO-1, 0.00457 µM | 0.97
SYO-1, 0.01372 µM | 0.907
SYO-1, 0.04115 µM | 0.903
SYO-1, 0.1235 µM | 0.872
SYO-1, 0.3704 µM | 0.843
SYO-1, 1.111 µM | 0.7846
SYO-1, 3.333 µM | 0.724
SYO-1, 10 µM | 0.551
VA-ES-BJ, 0.00017 µM | 1.05
VA-ES-BJ, 0.00051 µM | 1.05
VA-ES-BJ, 0.00152 µM | 1.05
VA-ES-BJ, 0.00457 µM | 1.01
VA-ES-BJ, 0.01372 µM | 1.01
VA-ES-BJ, 0.04115 µM | 0.997
VA-ES-BJ, 0.1235 µM | 1.01
VA-ES-BJ, 0.3704 µM | 1.01
VA-ES-BJ, 1.111 µM | 0.976
VA-ES-BJ, 3.333 µM | 0.954
VA-ES-BJ, 10 µM | 0.851
